The results in this text go back to patent US9340538B2, “Dihydropyrimidine compounds and their application in pharmaceuticals” (SUNSHINE LAKE PHARMA CO., LTD., priority 2013, dated 2016).

The term clearance denotes a measure of how efficiently the substance is removed, as volume per time. Read a high clearance as a high capacity for elimination. As usually defined, the half-life is the time needed for the level to fall by half in the phase considered. A high value points to slow loss. One may read the AUC(0-t) as the area under the concentration-time curve up to a stated or last time point. A higher AUC(0-t) goes with high exposure. Broadly, the AUC(0-inf) is total exposure, with the tail of the curve extrapolated. A low value points to low exposure. A word on the Cmax: it is the highest concentration seen after dosing. As usually defined, the Tmax is the time from dosing to the highest level. As a reminder, the bioavailability is dose-corrected exposure relative to a reference, in per cent.

SMILES strings stand for the structures. Where two headings read alike, the source gives them in different places.

One series has as its system HBV. Briefly: In-vitro anti-HBV activity in stable HBV-producing cell line (HepG2.2.15), HBV DNA in culture fluid by qPCR. The series is classed as cell-based. The conditions noted are these: Hepatitis B virus, 168 h; 500 nmol final concentration, HepG2.2.15 cells, HBV DNA in culture media on day 7 post seeding, vs DMSO control; read-out: HBV (% Inh.) (500 nmol). The protocol: In-Vitro Anti-HBV Activity of Compounds in Stable HBV-Producing Cell Line (HepG2.2.15)
HBV DNA contents in cell culture fluid were detected by the qPCR-based assay and percents of HBV inhibition by compounds (% Inh) were calculated. Specific procedures are as follows:
HepG2.2.15 cells were seeded into each well of 96-well plates, 40,000 cells per well. Cells were treated with cell culture medium containing compounds 24 hours after cell seeding. Each compound to detected percent inhibition was in duplicate and the final concentration of each compound was 500 nmol in each well. The compound-containing mediums were refreshed on day 4 post cell seeding. Culture media were collected from the HepG2.2.15 plates on day 7 post cell seeding followed by HBV DNA extraction.
HBV DNA extraction: using QIAamp 96 DNA Blood Kit (QIAGEN 51161).
PCR for quantification: PCR mix was prepared according to PCR system; PCR mix was dispensed to 384-well optical reaction plates (special for quantification); The standard diluted proportionally was added; The sample was added; The plates were sealed with optical adhesive film; PCR system was performed according to programs.
Percent of HBV inhibition of DNA replication by compound was calculated using the following equation: % Inh.=[1-HBV DNA quantity of sample/HBV DNA quantity of DMSO control]*100. II. Assay Results
(Quantitative PCR measures a nucleic acid by following its amplification.)

The nature of series [1]: Test compounds' PK assay in ICR mice. The series is classed as in vivo. Particulars: mouse, plasma; for AUC(0-t): AUC in 0-24 hours; for AUC(0-inf): AUC in 0 hour to infinite time; for Vd: read-out: Vss; for bioavailability: read-out: F (absolute bioavailability). On the procedure:
The test compounds were poured into ICR mice stomach through mouth with 10 mg/kg or administered 2 mg/kg or 10 mg/kg to ICR mice by tail-intravenous injection. Blood sample of orbital vein was taken at 0.083, 0.25, 0.5, 1, 2, 4, 6, 8 and 24 hours after administration, and collected in anticoagulation tube added with EDTA-K2. The test compounds were extracted from plasma samples and chromatographed on a tandem mass spectrometer. Quantitation was performed using multiple reaction monitoring (MRM). Pharmacokinetic parameters were calculated using WinNonlin 6.1 software with non compartment model.

Take `CCOC(=O)C1=C(CN2CCOC(CC(=O)O)C2)NC(c2nccs2)=NC1c1ccc(F)cc1Br` (centres unmarked) [Example 74, 2-(4-((6-(2-bromo-4-fluorophenyl)-5-(ethoxycarbonyl)-2-(thiazol-2-yl)-3,6-dihydropyrimidin-4-yl)methyl)morpholin-2-yl)acetic acid]: the inhibition at 0.5 µM in the series on HBV was determined as 91.7%. In series [1] (iv, 10 mg/kg), the clearance was 15.5 mL/min/kg, the half-life is 1.02 h, the AUC(0-t) amounted to 10600 ng·h/mL and the AUC(0-inf) worked out at 11200 ng·h/mL. In series [1] (iv, 10 mg/kg), the Vd amounted to 0.82 L/kg. For the same compound, in series [1] (po, 10 mg/kg), the highest level (Cmax) was 7330 ng/mL, the Tmax was 0.25 h, the half-life was 1.18 h and the AUC(0-t) is 7890 ng·h/mL. In series [1] (po, 10 mg/kg), the AUC(0-inf) turned out to be 8160 ng·h/mL and the bioavailability is 74.2%.
For `CCOC(=O)C1=C(CN2CCOC(CCC(=O)O)C2)NC(c2nccs2)=NC1c1ccc(F)cc1Br` (centres unmarked) [Example 129, 3-(4-((6-(2-bromo-4-fluorophenyl)-5-(ethoxycarbonyl)-2-(thiazol-2-yl)-3,6-dihydropyrimidin-4-yl)methyl)morpholin-2-yl)propanoic acid], the inhibition at 0.5 µM with HBV was 92%. Further, in series [1] (iv, 2 mg/kg), the Cmax was 3860 ng/mL, the Tmax turned out to be 0.08 h, the clearance is 20.3 mL/min/kg and the half-life was 2.42 h. In addition, in series [1] (iv, 2 mg/kg), the AUC(0-t) was 1630 ng·h/mL, the AUC(0-inf) came out at 1640 ng·h/mL and the Vd stood at 0.9 L/kg. In series [1] (po, 10 mg/kg), the Cmax was found to be 8610 ng/mL, the Tmax is 0.08 h, the half-life was 6.62 h and the AUC(0-t) is 5330 ng·h/mL. Moreover, in series [1] (po, 10 mg/kg), the AUC(0-inf) amounted to 5350 ng·h/mL and the bioavailability came to 65.2%.
